Test results taken from patent publication US9776987B2, “Amide derivatives for GPR119 agonist” (CHONG KUN DANG PHARMACEUTICAL CORP., priority 2013, dated 2017).
≈ marks a conversion by molar mass, not a printed value. Read-outs that look alike come from different tables or passages of the source.

Tests used:
[1] = tested on: Glucagon-Like Peptide-1 (GLP-1) secretion; assay: Secretion capacity test of glucagon-like peptide-1 (GLP-1); type: in vivo, mouse; settings: normal mice, oral, AUC of plasma GLP-1 level, vehicle (water) 100%
Procedure: 3. Secretion Capacity Test of Glucagon-Like Peptide-1 (GLP-1)
Male C57/6J Jms mice of 6-7 weeks of age were fasted for 16 hours before the start of the test of secretion capacity test of GLP-1. The experimental animal groups consist of: a vehicle group (100% DI water); and test groups administered with each compounds (10 mg/kg). Blood samples were taken from the orbital vein of the test animals. Plasma GLP-1 level was determined using a GLP-1 ELISA kit (Total GLP-1 ELISA, ALPCO). With the base of 30 minutes before the compound administration, each blood samples were taken at 30, 60, 120 and 210 minutes after the compound administration. 30% Glucose solution (3 g/kg/10 mL) was administered orally at 5 minutes before each blood-collecting. From the collected blood, only plasma was taken using a centrifuge (12000 rpm, 15 minutes), and stored at −80° C. before analysis. Plasma GLP-1 level vs. Time was graphicalized. Area under the curve (AUC) of plasma GLP-1 level was obtained using GraphPad Prism 4.0. All the results were expressed as mean±SD, and each test groups and the control group were compared using one-way ANOVA test (Dunnett's test, *p<0.05, **p<0.01, ***p<0.001) to adjudge the effects of each test groups.

[2] = Solubility test of GPR 119 agonist compounds (Nephelostar); type: physicochemical; settings: aqueous with cosolvent or surfactant or cyclodextrin, kinetic from dmso stock
Procedure: 1. Method of Solubility Test
Each test compounds were dissolved in 5% DMSO aqueous solution as a solvent at several concentrations. When a laser was irradiated to the solution, the particles, which are not dissolved in the solvent, scatter the light. The level of the scattered light is dependent to the number of the particles, so the solubility of the test compound in the solution can be determined using the relationship. As the test equipment, Nephelostar was used.

[3] = tested on: Male C57/6J Jms mice; assay: Glucose tolerance test in normal mouse; type: in vivo
Procedure: 1. Method of Glucose Tolerance Test
Male C57/6J Jms mice of 6-7 weeks of age were fasted for 16 hours before the start of glucose tolerance test. […]
Before compound administration, that is, at 0 hour, whole blood glucose level was determined using a Glucometer (ACCU-CHEK, Roche). At 30 minutes after compound administration, whole blood glucose level was determined once again, and 20% glucose (2 g/kg/10 mL) was administered orally. Whole blood glucose level was determined at 20, 40, 60, 80, and 120 minutes after 20% glucose administration. Whole blood glucose level vs. Time was graphicalized. Area under the curve (AUC) of whole blood glucose level was obtained using GraphPad Prism 4.0. The effect of glucose tolerance was adjudged with the corrected area under the curve (cAUC), on which the base value of glucose area under the curve was excluded.

[4] = biological target: T1, human GPR119 receptor (Homo sapiens, UniProt Q8TDV5); assay: Activity test for human GPR119 receptor (GeneBLAzer T-Rex GPR 119 CHO-K1 DA cells); type: cell-based; settings: for EC50: human GPR119 receptor expressing CHO-K1 cells, 5 hours treatment, read-out: hGPR119 EC50; for activity for human GPR119 receptor (in words): judgement on the EC50 values of Table 11
T1 construct: host or cells: GeneBLAzer T-Rex GPR 119 CHO-K1 DA cells (CHO-K1)
T1 sequence (Q8TDV5 1-335): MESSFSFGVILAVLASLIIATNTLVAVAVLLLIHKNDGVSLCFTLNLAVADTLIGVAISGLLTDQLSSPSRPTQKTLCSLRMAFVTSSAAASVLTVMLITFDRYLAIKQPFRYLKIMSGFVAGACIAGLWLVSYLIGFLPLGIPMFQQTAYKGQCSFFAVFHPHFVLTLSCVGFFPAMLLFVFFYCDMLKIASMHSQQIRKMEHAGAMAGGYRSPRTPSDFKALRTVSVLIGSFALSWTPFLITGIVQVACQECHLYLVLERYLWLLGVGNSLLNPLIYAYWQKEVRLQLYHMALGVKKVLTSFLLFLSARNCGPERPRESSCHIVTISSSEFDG
Method in brief: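 Compounds at 0.1, 1 and 10 μM, in duplicate, on GeneBLAzer T-Rex GPR119 CHO-K1 DA cells for 5 h, then 2 h with colour-development reagent before fluorescence reading. Test-to-vehicle-control ratio converted to EC50; mean±SD.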

[5] = pH 2, 5% DMSO aqueous solution, read-out: Solubility pH 2
[6] = pH 4, 5% DMSO aqueous solution, read-out: Solubility pH 4
[7] = pH 6, 5% DMSO aqueous solution, read-out: Solubility pH 6
[8] = pH 8, 5% DMSO aqueous solution, read-out: Solubility pH 8

SMILES: CCc1cnc(N2CCC(c3nc(COc4ccc(-n5cnnn5)cc4)cs3)CC2)nc1 [MBX-2982, reference compound]
- GLP-1 secretion (%) at 10 mg/kg of dose [1]: 114%
- solubility [2, 5]: > 208 µg/mL
- solubility [2, 6]: 133 µg/mL (≈ 297 µM)
- solubility [2, 7]: 61 µg/mL (≈ 136 µM)
- solubility [2, 8]: 39 µg/mL (≈ 86.9 µM)
- Decrease % of AUC at 2.5 mg/kg [3]: 9.5%
- Decrease % of AUC at 5 mg/kg [3]: 18.5%
- Decrease % of AUC at 10 mg/kg ([3]; 10 mg/kg, whole blood glucose AUC after oral glucose 2 g/kg): 20~30%

SMILES: CCC(F)(CC)CN1CCC(COc2ccc(-c3ccc(C(=O)N4C[C@H](O)C[C@H]4C(N)=O)c(F)c3)nc2)CC1 [Compound 1279, (2S,4R)-1-(4-(5-((1-(2-ethyl-2-fluorobutyl)piperidin-4-yl)methoxy)pyridin-2-yl)-2-fluorobenzoyl)-4-hydroxypyrrolidin-2-carboxamide]
- GLP-1 secretion (%) at 10 mg/kg of dose [1]: 324%
- EC50 [4]: 13 nM
- activity for human GPR119 receptor (in words) [4]: excellent activity
- solubility [2, 5]: > 272 µg/mL
- solubility [2, 6]: > 272 µg/mL
- solubility [2, 7]: > 272 µg/mL
- solubility [2, 8]: 133 µg/mL (≈ 244 µM)
- Decrease % of AUC at 2.5 mg/kg [3]: 20.8%
- Decrease % of AUC at 5 mg/kg [3]: 30.2%

SMILES: CC(C)(F)CN1CCC(COc2ccc(-c3ccc(C(=O)N4CCC[C@@]4(C)C(N)=O)c(F)c3)nc2)CC1 [Compound 1207, (S)-1-(2-fluoro-4-(5-((1-(2-fluoro-2-methylpropyl)piperidin-4-yl)methoxy)pyridin-2-yl)benzoyl)-2-methylpyrrolidin-2-carboxamide]
- GLP-1 secretion (%) at 10 mg/kg of dose [1]: 223%
- EC50 [4]: 0.07 nM
- activity for human GPR119 receptor (in words) [4]: excellent activity
- solubility [2, 5]: > 257 µg/mL
- solubility [2, 6]: > 257 µg/mL
- solubility [2, 7]: > 257 µg/mL
- solubility [2, 8]: > 257 µg/mL
- Decrease % of AUC at 2.5 mg/kg [3]: 31.3%
- Decrease % of AUC at 5 mg/kg [3]: 45.1%

SMILES: CCC(F)(CC)CN1CCC(COc2ccc(-c3ccc(C(=O)N4C[C@H](O)C[C@@]4(C)C(N)=O)c(F)c3)nc2)CC1 [Compound 1291, (2S,4R)-1-(4-(5-((1-(2-ethyl-2-fluorobutyl)piperidin-4-yl)methoxy)pyridin-2-yl)-2-fluorobenzoyl)-4-hydroxy-2-methylpyrrolidin-2-carboxamide]
- GLP-1 secretion (%) at 10 mg/kg of dose [1]: 347%
- EC50 [4]: 13 nM
- activity for human GPR119 receptor (in words) [4]: excellent activity
- solubility [2, 5]: > 279 µg/mL
- solubility [2, 6]: > 279 µg/mL
- solubility [2, 7]: > 279 µg/mL
- solubility [2, 8]: 166 µg/mL (≈ 297 µM)
- Decrease % of AUC at 2.5 mg/kg [3]: 15.7%
- Decrease % of AUC at 5 mg/kg [3]: 38.0%
